The text below walks through data of PubChem BioAssay (NCI).

Holding throughout (experiment): inhibition of tumour cell growth, NCI panel, 48 h
Assay [1] has as its system LOX IMVI melanoma.
The subject of assay [2] is NCI-H460 lung.
Assay [3] deals with SW-620 colon.
The subject of assay [4] is HS 578T breast.
Assay [5] deals with MDA-N.
In assay [6] the test system is SF-268 CNS.
Assay [7] has as its system SF-295 CNS.
Assay [8] deals with COLO 205 colon.
Assay [9] concerns MDA-MB-435.
The test system of assay [10] is MCF7 breast.
For assay [11], the system named is HT29 colon.

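How tested: cells in 96-well plates exposed to compound for 48 hours at five concentrations. The concentration for full growth arrest is given as TGI.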

Turning to `CC(C)c1c(P(=O)(c2ccccc2)c2ccccc2)n(C)c2ccccc12`, the TGI in [1], in assay [2], in assay [3], in assay [4], in assay [5] and in assay [6] was > 100 µM throughout. Moreover, the TGI in assay [7], in assay [8], in [9], in [10] and in assay [11] was > 100 µM throughout.

As to `C=CC/C(C(=O)OC)=C(/C(=O)OC)N(CCC)CCC`, the TGI in [1], in assay [2], in assay [3], in assay [4], in assay [5] and in assay [6] was > 100 µM in each case. The TGI in assay [7], in assay [8], in assay [9], in assay [10] and in assay [11] was > 100 µM throughout.

In the case of `N#CSCc1cccc(Nc2cc(=O)[nH]c(=O)[nH]2)c1`, the TGI in [1] was > 100 µM; in assay [2], > 100 µM; in assay [3], > 100 µM; in [4], > 100 µM; in [5], > 100 µM; in assay [6], 78.4 µM. For the same compound, the TGI in [7] was > 100 µM; in [8], > 100 µM; in assay [9] it was > 100 µM; in assay [10], 38.9 µM; in [11], > 100 µM.

As for `CO/N=C1/c2sccc2[C@H](NC(=O)CNC(=O)OC(C)(C)C)[C@@H]1O`, the TGI in assay [1], in assay [2], in [3], in [4], in assay [5] and in assay [6] was > 100 µM throughout. Besides, the TGI in assay [7], in assay [8], in assay [9], in assay [10] and in assay [11] was > 100 µM in each case.

Consider `O=C1OC[C@@H]2Cc3c([nH]c4ccccc34)[C@@H](c3ccc(O)cc3)N12`, for which the TGI in [1] is 46.3 µM; in assay [2] it was 81.4 µM; in [3], > 100 µM; in assay [4], > 100 µM; in assay [5] it was > 100 µM; in assay [6], > 100 µM. Besides, the TGI was > 83.4 µM in assay [7]; 40.9 µM in assay [8]; 68.2 µM in assay [9]; > 100 µM in assay [10]; 98.4 µM in assay [11].

Regarding `Cc1nc2ccc([N+](=O)[O-])cc2c(=O)n1C(=S)Nc1cccc(Cl)c1`, the TGI was 35.3 µM in assay [1]; 52.6 µM in assay [2]; 53.3 µM in assay [3]; 72.4 µM in assay [4]; 39.4 µM in assay [5]; 42.9 µM in assay [6]. Further, the TGI came to 53.6 µM in [7]; 31.6 µM in assay [8]; 41.2 µM in [9]; 49.5 µM in assay [10]; 39.6 µM in [11].

For the compound `N#Cc1c(OCCF)c2ccccc2n2c1nc1ccccc12`, the TGI in [1], in assay [2], in [3], in assay [4], in assay [5] and in assay [6] was > 100 µM in each case. Also, the TGI in assay [7], in [8], in assay [9], in [10] and in assay [11] was > 100 µM in each case.

On to `O=C1/C(=C/c2ccc(F)cc2)CNC/C1=C\c1ccc(F)cc1`, for which the TGI was 2.33 µM in assay [1]; 2.36 µM in assay [2]; 0.754 µM in [3]; > 42.1 µM in assay [4]; 5.67 µM in [5]; 4.06 µM in assay [6]. Further, the TGI in [7] is 6.19 µM; in assay [8], 3.42 µM; in assay [9], 7.51 µM; in assay [10], 8.83 µM; in assay [11] it was 7.4 µM.

For `O=C1C(C=NCCc2c[nH]c3ccccc23)C(C(F)(F)F)=NN1c1nc2ccccc2s1` (stereo unspecified), the TGI was 78.6 µM in [1]; 62.4 µM in [2]; > 100 µM in assay [3]; > 100 µM in assay [4]; > 100 µM in assay [5]; > 100 µM in assay [6]. In addition, the TGI in assay [7] is 66.5 µM; in assay [8], 34 µM; in [9] it was 71.9 µM; in [10], 57.2 µM; in assay [11] it was 88 µM.

Regarding `CC(C)/C(Cl)=N\OC(=O)NNc1ccccc1`, the TGI is 36.9 µM in assay [1]; > 100 µM in assay [2]; > 44.1 µM in [3]; > 100 µM in assay [4]; > 100 µM in assay [5]; > 100 µM in assay [6]. Also, the TGI in [7] was > 100 µM; in assay [8], 1.63 µM; in assay [9] it was > 100 µM; in [10] it was > 100 µM; in assay [11] it was > 100 µM.

Take `O=C(O)CNC(=O)c1ccc([As](=O)(O)O)cc1`: the TGI in assay [1], in [2], in [3], in assay [4], in assay [5] and in [6] was > 100 µM throughout. Also, the TGI in assay [7], in assay [8], in assay [9], in assay [10] and in assay [11] was > 100 µM throughout.
